We go through 33 compounds from ChEMBL document CHEMBL5120828, “Identification and optimisation of a pyrimidopyridone series of IRAK4 inhibitors” (Bioorg Med Chem, 2022).

Data set [1] concerns the target T1, Interleukin-1 receptor-associated kinase 4 (Homo sapiens, UniProt Q9NWZ3).
T1 sequence (Q9NWZ3 whole entry): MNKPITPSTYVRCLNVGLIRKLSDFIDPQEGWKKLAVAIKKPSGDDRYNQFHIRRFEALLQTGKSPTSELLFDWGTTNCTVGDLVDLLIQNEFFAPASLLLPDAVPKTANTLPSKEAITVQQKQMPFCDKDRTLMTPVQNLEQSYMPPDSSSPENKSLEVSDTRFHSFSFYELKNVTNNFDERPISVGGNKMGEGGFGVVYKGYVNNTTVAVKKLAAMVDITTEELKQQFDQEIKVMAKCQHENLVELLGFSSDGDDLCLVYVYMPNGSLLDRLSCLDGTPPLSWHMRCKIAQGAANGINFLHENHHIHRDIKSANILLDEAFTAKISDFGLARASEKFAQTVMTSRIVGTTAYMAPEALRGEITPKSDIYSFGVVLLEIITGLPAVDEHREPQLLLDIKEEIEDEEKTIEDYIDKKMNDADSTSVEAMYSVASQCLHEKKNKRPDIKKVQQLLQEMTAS
Kind of data set: Inhibition of IRAK4 in IL1-stimulated human KARPAS-299 cells assessed as fluorescence intensity. The class given is cell-based.

Data set [2] in a line: Intrinsic permeability across apical to basolateral side in human Caco-2 cells. In kind it is ADME, cell-based. In general terms: Caco-2 monolayers are a common model of the intestinal barrier.
The nature of data set [3]: Efflux ratio of permeability in human Caco-2 cells. In kind it is ADME, cell-based.
Data set [4] in a line: Metabolic stability in human liver microsomes assessed as intrinsic clearance. The class given is ADME. On the technique in general: Liver microsomes are vesicles of endoplasmic reticulum, rich in cytochrome P450 enzymes.
Data set [5] concerns the target T1, Interleukin-1 receptor-associated kinase 4. Kind of data set: Inhibition of human recombinant IRAK4 assessed as unphosphorylated KKARFSRFAGSSPSQSSMVAR peptide substrate measured after 2 hrs by LC-MS/MS analysis.
Data set [6] is described as follows: Octanol/water partition coefficient, logP of compound at pH 7.4 by shake-flask method. In kind it is physicochemical.

For orientation: IC50 means the point on the concentration scale where inhibition reaches its midpoint. A word on the Papp A→B: it is how fast a substance crosses the layer from the apical side. A high value points to ready permeation. A word on the efflux ratio: it is the permeability from basolateral to apical divided by that in the opposite direction, in the common usage. What is called logD is the decadic logarithm of the distribution of all forms, ionised or not, between an organic phase and buffer at a given pH. Low readings indicate a more hydrophilic compound, high ones a more lipophilic compound. `COC(=O)N1CCN([C@H]2CC[C@H](Nc3nc(Nc4cnn(C)c4)nc4ccc(C)nc34)CC2)CC1`: the IC50 stood at 180 nM in data set [1] and 5 nM in data set [5]. In data set [2], this compound registered a Papp A→B of 7.9 ×10⁻⁶ cm/s. Besides, in data set [3], the efflux ratio stood at 2.1. For the same compound, the CLint in data set [4] came to 37 µL/min/mg. In data set [6], this compound yielded a logD of 2.6.
For `CN1C[C@H]2C[C@@H]1C[C@@H]2n1cc(Nc2nc(NC3(C)CC3)c3c(=O)n(C)ccc3n2)cn1`, the IC50 in data set [1] was 320 nM; in data set [5], 16 nM. In addition, the CLint in data set [4] turned out to be 14 µL/min/mg. Besides, the logD in data set [6] was 1.2.
For the compound `COC(=O)N1CCN([C@H]2CC[C@H](Nc3nc(Nc4cnn(C)c4)nc4ccn(C)c(=O)c34)CC2)CC1`, the IC50 was determined as 150 nM in data set [1] and 5 nM in data set [5]. Moreover, in data set [2], the Papp A→B was 17 ×10⁻⁶ cm/s. In data set [3], the efflux ratio was 3. In addition, in data set [4], the CLint is 22 µL/min/mg. In data set [6], the logD amounted to 2.4.
As for `CN1CCC(n2cc(Nc3nc(NC4(C)CC4)c4c(=O)n(C)ccc4n3)cn2)CC1`, the values for the IC50 in data set [1] and in data set [5] were 39 nM and 1 nM, respectively. In data set [2], this compound yielded a Papp A→B of 17 ×10⁻⁶ cm/s. For the same compound, the efflux ratio in data set [3] was 3.1. In addition, in data set [4], the CLint amounted to 25 µL/min/mg. This compound also registered a logD in data set [6] of 2.4.
On to `C[C@H](F)Cn1ccc2nc(Nc3cnn([C@H]4C[C@H]5C[C@@H]4CN5C)c3)nc(NC3(C)CC3)c2c1=O`, for which the IC50 in data set [1] was 79 nM; in data set [5], 3 nM. The CLint in data set [4] is 12 µL/min/mg. The logD in data set [6] stood at 2.
Take `CN1CC2(CC(n3cc(Nc4nc(NC5(C)CC5)c5c(=O)n(CC(F)F)ccc5n4)cn3)C2)C1`: the IC50 is 90 nM in data set [1] and 4 nM in data set [5]. In data set [2], this compound had a Papp A→B of 12 ×10⁻⁶ cm/s. Further, in data set [3], the efflux ratio was 7.1. Besides, the CLint in data set [4] was 9.6 µL/min/mg. This compound also displayed a logD in data set [6] of 2.
As to `CN1CC(n2cc(Nc3nc(NC4(C)CC4)c4c(=O)n(C)ccc4n3)cn2)CCC1=O` (stereo not given), the results for the concentration for half-maximal inhibition (IC50) in data set [1] and in data set [5] were 75 nM and 2 nM, respectively. The CLint in data set [4] came to 89 µL/min/mg. In data set [6], the logD came to 2.4.
Consider `Cn1cc(Nc2nc(NC3(C)CC3)c3nc(CC#N)ccc3n2)cn1`, for which the CLint in data set [4] stood at 82 µL/min/mg. Moreover, the log distribution coefficient (logD) in data set [6] is 2.7.
`Cn1cc(Nc2nc(NC3(C)CC3)c3c(=O)n(C)ccc3n2)cn1`: the IC50 in data set [1] was 190 nM; in data set [5], 8 nM. The compound also had a Papp A→B in data set [2] of 67 ×10⁻⁶ cm/s. Moreover, in data set [3], the efflux ratio is 0.75. In addition, the CLint in data set [4] was 13 µL/min/mg. Besides, in data set [6], the logD is 2.9.
As for `COC(=O)N1CCN([C@H]2CC[C@H](Nc3nc(Nc4cnn(C)c4)nc4ccn(CC#N)c(=O)c34)CC2)CC1`, the IC50 in data set [1] was found to be 440 nM; in data set [5] it was 23 nM. Besides, in data set [4], the CLint is 25 µL/min/mg. The compound also showed a logD in data set [6] of 2.3.
The corresponding values for `CN1C[C@H]2C[C@@H]1C[C@@H]2n1cc(Nc2nc(NC3(C)CC3)c3c(=O)n(CC(F)F)ccc3n2)cn1` are 150 nM, 4 nM, 23 µL/min/mg and 1.9.
The corresponding values for `CN1CCC(n2cc(Nc3nc(NC4(C)CC4)c4c(=O)n(CC(F)F)ccc4n3)cn2)CC1` are 83 nM, 2 nM, 50 µL/min/mg and 2.9.
The corresponding values for `CN1C[C@@H]2C[C@H]1C[C@@H]2n1cc(Nc2nc(NC3(C)CC3)c3c(=O)n(C)ccc3n2)cn1` are 90 nM, 3 nM, 17 µL/min/mg and 1.4.
As to `C[C@@H](CF)n1ccc2nc(Nc3cnn(C4CCN(C)CC4)c3)nc(NC3(C)CC3)c2c1=O`, the figures for the IC50 in data set [1] and in data set [5] were 150 nM and 4 nM, respectively. For the same compound, the CLint in data set [4] was determined as 51 µL/min/mg. Further, the logD in data set [6] was 3.
Regarding `CN1CCC(n2cc(Nc3nc(NC4(C)CC4)c4c(=O)n(C(F)F)ccc4n3)cn2)CC1`, the IC50 in data set [1] was 170 nM; in data set [5], 3 nM. The CLint in data set [4] turned out to be 31 µL/min/mg. Moreover, in data set [6], the logD amounted to 3.3.
On to `CN1CCC(n2cc(Nc3nc(NC4(C)CC4)c4c(=O)n(-c5cn(C)nn5)ccc4n3)cn2)CC1`, for which the values for the IC50 in data set [1] and in data set [5] were 180 nM and 6 nM, respectively. Further, in data set [2], the apical-to-basolateral permeability (Papp A→B) was 21 ×10⁻⁶ cm/s. Moreover, in data set [3], the efflux ratio amounted to 2. Moreover, in data set [4], the CLint was found to be 49 µL/min/mg. Also, in data set [6], the logD is 2.5.
For the compound `C[C@H](F)Cn1ccc2nc(Nc3cnn(C4CCN(C)CC4)c3)nc(NC3(C)CC3)c2c1=O`, the IC50 turned out to be 56 nM in data set [1] and 2 nM in data set [5]. Also, in data set [4], the CLint turned out to be 47 µL/min/mg. Moreover, the logD in data set [6] turned out to be 2.9.
With `CN1CCC(n2cc(Nc3nc(NC4(C)CC4)c4c(=O)n(-c5cncnc5)ccc4n3)cn2)CC1`, the results for the IC50 in data set [1] and in data set [5] were 72 nM and 4 nM, respectively. Moreover, in data set [3], the efflux ratio came to 5. Moreover, the CLint in data set [4] is 38 µL/min/mg. Besides, the logD in data set [6] worked out at 2.3.
As for `CN1CC2(CC(n3cc(Nc4nc(NC5(C)CC5)c5c(=O)n(C)ccc5n4)cn3)C2)C1`, the IC50 in data set [1] turned out to be 33 nM; in data set [5], 1 nM. This compound returned a Papp A→B in data set [2] of 5.7 ×10⁻⁶ cm/s. Moreover, the efflux ratio in data set [3] was determined as 15. For the same compound, in data set [4], the CLint was 9.7 µL/min/mg. In data set [6], this compound had a logD of 1.4.
As for `CN1CCC(n2cc(Nc3nc(NC4(C)CC4)c4c(=O)n(-c5cnn[nH]5)ccc4n3)cn2)CC1`, the figures for the IC50 in data set [1] and in data set [5] were 69 nM and 1 nM, respectively. This compound also returned a Papp A→B in data set [2] of 3.3 ×10⁻⁶ cm/s. In data set [3], the efflux ratio was determined as 28. The CLint in data set [4] worked out at 20 µL/min/mg. In data set [6], this compound yielded a logD of 2.5.
For `C[C@H](CF)n1ccc2nc(Nc3cnn(C4CCN(C)CC4)c3)nc(NC3(C)CC3)c2c1=O`, the IC50 in data set [1] is 170 nM; in data set [5], 5 nM. For the same compound, the CLint in data set [4] stood at 47 µL/min/mg. In data set [6], this compound gave a logD of 2.8.
The corresponding values for `CN1CCC(n2cc(Nc3nc(NC4(C)CC4)c4c(=O)n(C5CC5)ccc4n3)cn2)CC1` are 74 nM, 4 nM, 25 µL/min/mg and 2.5.
The corresponding values for `CN1CC2(CC(n3cc(Nc4nc(NC5(C)CC5)c5c(=O)n(-c6cn(C)nn6)ccc5n4)cn3)C2)C1` are 500 nM, 15 nM, < 3 µL/min/mg and 1.7.
The corresponding values for `C[C@@H](F)Cn1ccc2nc(Nc3cnn(C4CCN(C)CC4)c3)nc(NC3(C)CC3)c2c1=O` are 110 nM, 21 nM, 41 µL/min/mg and 2.9.
With `CN(C)CC(=O)N1CCC(n2cc(Nc3nc(NC4(C)CC4)c4c(=O)n(C)ccc4n3)cn2)CC1`, the IC50 in data set [1] is 16 nM; in data set [5], 1 nM. The Papp A→B in data set [2] was 4.3 ×10⁻⁶ cm/s. In data set [3], the efflux ratio was 37. The CLint in data set [4] worked out at 40 µL/min/mg. The same compound had a logD in data set [6] of 1.7.
In the case of `CN(C)C(=O)CN1CCC(n2cc(Nc3nc(NC4(C)CC4)c4c(=O)n(C)ccc4n3)cn2)CC1`, the results for the IC50 in data set [1] and in data set [5] were 46 nM and 0.8 nM, respectively. This compound also showed a Papp A→B in data set [2] of 15 ×10⁻⁶ cm/s. For the same compound, the efflux ratio in data set [3] came out at 8.8. In data set [4], the CLint is 57 µL/min/mg. This compound had a logD in data set [6] of 2.4.
Consider `CC(C)n1ccc2nc(Nc3cnn(C4CCN(C)CC4)c3)nc(NC3(C)CC3)c2c1=O`, for which the IC50 in data set [1] was found to be 210 nM; in data set [5], 5 nM. The CLint in data set [4] worked out at 32 µL/min/mg. In data set [6], this compound registered a logD of 3.3.
For `CC(=O)N1CCC(n2cc(Nc3nc(NC4(C)CC4)c4c(=O)n(C)ccc4n3)cn2)CC1`, the IC50 in data set [1] worked out at 49 nM; in data set [5] it was 2 nM. In data set [2], this compound displayed a Papp A→B of 48 ×10⁻⁶ cm/s. For the same compound, in data set [3], the efflux ratio was 6. The CLint in data set [4] turned out to be 83 µL/min/mg. Moreover, in data set [6], the logD stood at 2.5.
With `CN1CCC(n2cc(Nc3nc(NC4(C)CC4)c4c(=O)n(-c5nnc[nH]5)ccc4n3)cn2)CC1`, the IC50 in data set [1] is 320 nM; in data set [5], 11 nM. For the same compound, in data set [2], the Papp A→B turned out to be 16 ×10⁻⁶ cm/s. For the same compound, the efflux ratio in data set [3] was 4.5. In addition, the CLint in data set [4] was found to be 4.7 µL/min/mg. Further, the logD in data set [6] was found to be 1.8.
For the compound `CN1CC[C@H](n2cc(Nc3nc(NC4(C)CC4)c4c(=O)n(C)ccc4n3)cn2)[C@H](F)C1` (racemic), the IC50 came to 10 nM in data set [1] and 0.6 nM in data set [5]. For the same compound, the CLint in data set [4] is 61 µL/min/mg. Also, in data set [6], the logD stood at 2.7.
The corresponding values for `C[C@@H]1C[C@@H](n2cc(Nc3nc(NC4(C)CC4)c4c(=O)n(C)ccc4n3)cn2)CCN1C` (racemic) are 50 nM, < 1 nM, 88 µL/min/mg and 2.2.
The corresponding values for `CN1CC[C@H](n2cc(Nc3nc(NC4(C)CC4)c4c(=O)n(C)ccc4n3)cn2)[C@@H](F)C1` (racemic) are 45 nM, 1 nM, 98 µL/min/mg and 3.2.
The corresponding values for `C[C@H]1C[C@@H](n2cc(Nc3nc(NC4(C)CC4)c4c(=O)n(C)ccc4n3)cn2)CCN1C` (relative stereo) are 18 nM, 0.6 nM, 31 µL/min/mg and 2.7.
